Reference: patent US20030139616A1, “Method of searching for arteriosclerosis inhibitors and shrinkers” (priority 2000, published 2003)

Columns and labels:
foam mouse macrophages = assay: Defoaming-promoting activity (cholesterol efflux into medium); assay type: cell-based; settings: for Amount of cholesterol transferred (control group = 100%) Mean: method of Example 4; for action on transfer of cholesterol: result in words, summary of Tables 3 and 7
Method: The activity of the test compound on defoaming was measured by treating the foam mouse macrophages prepared in Example 1, with RPMI 1640-25 mM HEPES medium (pH 7) containing the test compound for 24 hours, followed by adding 20% fetal bovine serum (JRH Ltd.), and determining the radioactivity released into the medium after further culture for 24 hours. The defoaming-promoting activity of a group treated with the compound was calculated as a ratio (%) of the radioactivity corrected by a blank value to that of a control group. The blank value used was the radioactivity in the absence of the test compound and 20% fetal bovine serum. The defoaming-promoting activities of the control group and the group treated with the compound were corrected by the amount of cell protein measured by the BCA assay kit from Pierce Ltd. after the cells were solubilized with 0.1 N NaOH/0.1% SDS solution.
The promoting action of Compound A on defoaming was measured by using the method described in Example 4.

foamed macrophages = assay: Intracellular cholesteryl ester content by enzyme method; assay type: cell-based, mouse; settings: for Content of intracellular cholesteryl esters (control group = 100%) Mean: method of Example 5 (enzyme method); for action on reduction of the cholesteryl ester content: result in words, summary of Tables 4 and 8
Method: The mouse peritoneal macrophages prepared in Example 1 were cultured for 24 hours in an RPMI 1640-25 mM HEPES medium (pH 7) containing β-VLDL (150 μg/ml) and a conjugate of 0.2 mM oleic acid/0/2% bovine serum albumin to obtain foam cells in which cholesteryl esters were accumulated. These foamed macrophages were treated with an RPMI 1640-25 mM HEPES medium (pH 7) containing the test compound for 24 hours, and then the whole lipid was extracted. The lipid thus extracted was dissolved in isopropanol and measured for the amounts of the whole cholesterol and free cholesterol by the enzyme method (E-Test Wako, Wako Ltd.), and, from the difference therebetween, the amount of cholesteryl esters was calculated. The amounts of cell protein in a control group and a group treated with the compound were measured with a BCA assay kit from Pierce Ltd. after the cells were solubilized with 0.1 N NaOH/0.1% SDS solution, and assuming that the amount of cholesteryl esters (μg/mg cell protein) in the cells in the control group was 100%, the amount of cholesteryl esters (%) in the group treated with the compound was calculated.
The action of Compound A on reduction of the content of intracellular cholesteryl esters was measured by using the method described in Example 5.

[1] = test system: Mouse peritoneal macrophages; assay: Inhibitory action on synthesis of intracellular cholesteryl esters; assay type: cell-based; settings: for Content of intracellular cholesteryl esters (control group = 100%) TLC method Mean / Content of intracellular cholesteryl esters (control group = 100%) Methanol method Mean: 24 hours, 25-hydroxycholesterol
Method: Mouse peritoneal macrophages prepared in the method described in Example 1 were cultured for 24 hours in an RPMI 1640-25 mM HEPES medium (pH 7) containing 1% fetal bovine serum and [1,2,6,7-^3H]-cholesterol (37 Kbq/ml, NEN Ltd.). The macrophages were labeled with ^3H-cholesterol and then cultured for 24 hours in an RPMI 1640-25 mM HEPES medium (pH 7) containing 2-[6-chloro-4-(2-methylphenyl)-2-oxo-2H-chromene-3-yl]-N-(2,6-dimethoxyphenyl) acetamide (referred to hereinafter as Compound A), 25-hydroxycholesterol (5 μg/ml, Sigma) and 0.2 mM oleic acid/0.2% bovine serum albumin, and the content of synthesized intracellular cholesteryl esters was quantified by the TLC fractionation method or the aqueous methanol extraction method (hereinafter also referred to as the methanol method). The measurement by the TLC fractionation method was conducted by extracting the whole intracellular lipid with a hexane-isopropanol mixture (3:2, v/v) and then fractionating the lipid in TLC under the same conditions as in Example 1 to quantify the intracellular cholesteryl esters. The measurement by the aqueous methanol extraction method was conducted by treating the cells with 80% methanol for 10 minutes, then solubilizing the cells with 0.1 N NaOH/0.1% SDS solution, and measuring their radioactivity. Each value of radioactivity was corrected by the amount of cell proteins measured with a BCA assay kit (Pierce Ltd.) after the cells were solubilized with 0.1 N NaOH/0.1% SDS solution, and assuming that the radioactivity (dpm/mg cell protein) of the control group in the absence of the test compound was 100%, the content of intracellular cholesteryl esters (%) in the group treated with Compound A was calculated.

[2] = test system: Foam cells derived from mouse peritoneal macrophages; assay: Promoting action on decomposition of intracellular cholesteryl esters; assay type: cell-based; settings: for Content of intracellular cholesteryl esters (control group = 100%) TLC method Mean / Content of intracellular cholesteryl esters (control group = 100%) Methanol method Mean: 48 hours
Method: Foam cells derived from mouse peritoneal macrophages, prepared in the method described in Example 1, were cultured for 48 hours in an RPMI 1640-25 mM HEPES medium (pH 7) containing Compound A, and a reduction in the intracellular cholesteryl ester content was quantified by a TLC fractionation method or an aqueous methanol extraction method. The measurement by the TLC fractionation method was conducted by extracting the whole intracellular lipid with a hexane-isopropanol mixture (3:2, v/v) and then fractionating the lipid by TLC under the same conditions as in Example 1 to quantify the intracellular cholesteryl esters. The measurement by the aqueous methanol extraction method was conducted by treating the cells with 80% methanol for 10 minutes, then solubilizing the cells with 0.1 N NaOH/0.1% SDS solution, and measuring their radioactivity. Each value of radioactivity was corrected by the amount of cell proteins measured with a BCA assay kit (Pierce Ltd.) after the cells were solubilized with 0.1 N NaOH/0.1% SDS solution, and assuming that the radioactivity (dpm/mg cell protein) of the control group in the absence of the test compound was 100%, the content of intracellular cholesteryl esters (%) in the group treated with Compound A was calculated.

foam macrophages = assay: Measurement of regulatory activity on intracellular cholesteryl ester cycle (aqueous methanol extraction); assay type: cell-based, mouse
Method: According to the method of Hakamada et al. (“Jikken Igaku (Experimental Medicine), Extra Issue”, vol. 14, No. 12, Circulation Study Protocol, pp. 49-52 (1996)), peritoneal macrophages were prepared from C57BL6J mice stimulated with thioglycolate, and then cultured for 24 hours in RPMI 1640-25 mM HEPES (pH 7) containing β-very low-density lipoprotein (β-VLDL, 150 μg cholesterol/ml) prepared according to the method of Ishii et al. (Arterioscler. Thromb., 12, 1139-1145, 1992), a conjugate of 0.2 mM oleic acid/0.2% bovine serum albumin, and [1,2,6,7-^3H]-cholesterol (NEN, 37 KBq/ml) to obtain foam cells in which cholesteryl esters were accumulated. […] A part of the extract was fractionated by the TLC method (Merck Silica Gel Plate No. 5582, developing solvent: petroleum ether/diethyl ether/acetic acid=9:1:0.1), free cholesterol and cholesteryl ester fractions were cut off, a liquid scintillator was added, and the radioactivity thereof was measured.
In an RPMI 1640-HEPES medium (pH 7) containing the test compound, the foam macrophages prepared in Example 1 were cultured for 24 hours. The cells were extracted with 80% aqueous methanol for 10 minutes and then solubilized with 0.1 NaOH/0.1% SDS solution, a liquid scintillator was added to a portion thereof, and its radioactivity was measured. […]

COc1cccc(OC)c1NC(=O)Cc1c(-c2ccccc2C)c2cc(Cl)ccc2oc1=O [Compound A, 2-[6-chloro-4-(2-methylphenyl)-2-oxo-2H-chromene-3-yl]-N-(2,6-dimethoxyphenyl) acetamide]
Amount of cholesterol transferred (control group = 100%) Mean (foam mouse macrophages; 0.01 mM): 142% | Amount of cholesterol transferred (control group = 100%) Mean (foam mouse macrophages; 0.1 mM): 191% | action on transfer of cholesterol (foam mouse macrophages): strong action | Content of intracellular cholesteryl esters (control group = 100%) Mean (foamed macrophages; 0.01 mM): 63% | Content of intracellular cholesteryl esters (control group = 100%) Mean (foamed macrophages; 0.1 mM): 48% | action on reduction of the cholesteryl ester content (foamed macrophages): strong action | Content of intracellular cholesteryl esters (control group = 100%) TLC method Mean ([1]; 0.01 mM): 44% | Content of intracellular cholesteryl esters (control group = 100%) Methanol method Mean ([1]; 0.01 mM): 41% | Content of intracellular cholesteryl esters (control group = 100%) TLC method Mean ([1]; 0.03 mM): 16% | Content of intracellular cholesteryl esters (control group = 100%) Methanol method Mean ([1]; 0.03 mM): 19% | Content of intracellular cholesteryl esters (control group = 100%) TLC method Mean ([1]; 0.1 mM): 5% | Content of intracellular cholesteryl esters (control group = 100%) Methanol method Mean ([1]; 0.1 mM): 9% | inhibitory activity on synthesis of cholesteryl esters ([1]; result in words, summary of Table 5): potent inhibitory activity | Content of intracellular cholesteryl esters (control group = 100%) TLC method Mean ([2]; 0.01 mM): 71% | Content of intracellular cholesteryl esters (control group = 100%) Methanol method Mean ([2]; 0.01 mM): 74% | Content of intracellular cholesteryl esters (control group = 100%) TLC method Mean ([2]; 0.1 mM): 8% | Content of intracellular cholesteryl esters (control group = 100%) Methanol method Mean ([2]; 0.1 mM): 14% | promoting activity on degradation of cholesteryl esters ([2]; result in words, summary of Table 6): strong promoting activity

CCCC(=O)Nc1ncnc2c1ncn2[C@@H]1O[C@@H]2COP(=O)(O)O[C@H]2[C@H]1OC(=O)CCC [dbc-AMP, Dibutyryl cyclic AMP, reference compound]
Cholesteryl ester content (%) (foam macrophages; 100 μM, 24 hours, 80% aqueous methanol extraction, control = 100%): 60 ± 12 p < 0.01 % | cholesteryl ester cycle-regulating action (foam macrophages; result in words, summary of Table 2): potent cholesteryl ester-hydrolytic activity | Amount of cholesterol efflux (%) (foam mouse macrophages; 100 μM, 24 hours then 20% fetal bovine serum 24 hours, control = 100%): 160 ± 15 p < 0.01 % | action on transfer of cholesterol (foam mouse macrophages): exerts an action | Cholesteryl ester content (%) (foamed macrophages; 100 μM, 24 hours, enzyme method, control = 100%): 78 ± 4 p < 0.01 % | action on reduction of the cholesteryl ester content (foamed macrophages): exerts an action
